Experimental findings from patent US10653647B2 (priority 2003, dated 2020) are described below.

The experiment relates to terminal sensory nerve fibers of rat vulva. Kind of experiment: reduction of nerve fiber density in rat vulva, PGP 9.5 immunostaining. It is filed as in vivo. To be noted: 33 μL, 1% (w/v) in DGME applied for 20 minutes, Day 7, statistical significance not established. As for the experimental part:
Sixty female retired breeder Sprague-Dawley rats were divided into 6 groups. On day 0, rats were anesthetized with isoflurane anesthetic gas and then LMX5® anesthetic cream was applied to the entire vulvar area of each rat at least 30 minutes. The test formulations were applied using a micropipette to dispense 33 μL of each formulation. The formulations applied were diethylene glycol monoethyl ether (DGME) alone; 0.01% capsaicin (w/v) in DGME; 0.1% capsaicin (w/v) in DGME; 1% resiniferatoxin (w/v) in DGME; 3% capsaicin (w/v) in 90% (v/v) DGME and 10% (v/v) DMSO, a 10% capsaicin (w/v) in DGME. The formulations were left on for 20 minutes with the exception of 10% capsaicin (w/v) in DGME which was left on for 5 minutes. The remaining formulation was removed using a cleansing gel (89.08% PEG 300, 1.0% Carbopol 1382™, 0.02% butylated hydroxyanisole, 0.01% disodium edentate, pH 6.5). […] The tissues were evaluated by a board certified veterinary pathologist for (1) any and all lesions, with particular attention to inflammation and any microvascular changes, and (2) the presence, absence and any abnormalities in the architecture of the terminal nerve sensory nerve fibers. For each specimen, nerve fiber functionality was determined by counting the number of nerve fibers observed in at least four microscopical fields (each circular microscopical field has a radius of 90 μm) and then averaged. […]

With `C=C(C)[C@]12C[C@@H](C)[C@@]34O[C@](Cc5ccccc5)(O[C@@H]1[C@@H]3C=C(COC(=O)Cc1ccc(O)c(OC)c1)C[C@]1(O)C(=O)C(C)=C[C@@H]41)O2` [resiniferatoxin], the “decrease in nerve fiber density” value was 28%.
